Reference: US11242370B2, “Neuregulin-4 compounds and methods of use” (Eli Lilly and Company, priority 2019, dated 2022)
Residue numbers refer to the chain shown, from its start. Names may count otherwise. Marks after values point to notes of the source that are not given here. One block for each molecule: values may come before it.

Assays:
[1] = test system: rat model of heart failure with reduced ejection fraction (HFrEF); test: Rat MI model, captopril, Example 10 or combination, echocardiography; type: in vivo; set-up: Left Ventricle Diameter (end diastole): unit not given here
Method: A nonclinical efficacy pharmacology study is conducted in a rat model of heart failure with reduced ejection fraction (HFrEF) to evaluate cardiac function and structure changes after captopril treatment, Example 10 treatment or combination treatment.
The left coronary artery is permanently ligated. All rats are individually housed in a temperature and humidity controlled room and maintained on a 12 hour light/dark cycle. Two to three weeks after surgery, rats undergo transthoracic echocardiography for determination of ejection fraction (EF %) and left ventricle dimensions (LVD) using a Vevo 2100 ultrasound system. Rats are randomized across treatment groups according to EF % and LVD.
Measurements of EF % and LVD are expressed as mean values±standard error (SE). Statistical analysis is performed with JMP® 13 software (SAS Institute, Inc.; Cary, N.C.) and Dunnett's Test is used for statistical comparisons across treatment groups. Statistical significance is accepted at P<0.05.
Three weeks after MI surgery, animals are randomized to 2 treatment groups (Placebo or captopril, 2 g/L in drinking water, ad lib) according to EF % and LVD. Three weeks and four weeks after dosing starts, cardiac function (EF %) and structure (LVD) are evaluated by transthoracic echocardiography. Animals are further randomized to additional groups based on cardiac function (EF %) and structure (LVD) to the following groups: Placebo, Example 10, captopril and Example 10+captopril. Animals in the Example 10 groups receive a single injection on week 4 after the 2nd randomization. Cardiac function (EF %) and structure (LVD) are evaluated on week 5 and 6.

[2] = biological target: T1, human HER2 and HER4 (Homo sapiens, UniProt Q15303); test: Screening by human HER2-HER4 mediated ERK 1/2 phosphorylation in CHO-hHER2-hHER4 (clone 1H6) cells; type: cell-based; conditions: Fc variants as 293F supernatants
T1 construct: expressed in transfected cells
Method: A cell based assay utilizing CHO-K1 cells overexpressing human or rat HER receptors is used to determine activity of NRG4 compounds. CHO-K1 cells (ATCC) are grown in DMEM-F12 3:1 with 5% FBS with 20 mM HEPES, 40 μg/mL L-Proline, lx antibiotics and were split 1:5 every 2-3 days with TripLE Express (Gibco). Cells are transfected with plasmid DNA encoding HER receptors in pairs (hHER2-3, hHER2-4, rHER2-3 and rHER2-4) with Fugene 6 (Promega) according to the manufacturer's instructions. […] Transfected cells are selected with Puromycin (12 ug/ml) and Hygromycin (1 mg/ml) for 3-4 weeks and clonal lines are obtained by limited dilution cloning into 96 well plates. Clonal lines are selected by appropriate gene expression of HER2, HER3 or HER4 by Taqman method. Lines with appropriate receptor expression are confirmed by NRG1 induced phospho-ERK 1/2 responses. Clones are grown up, harvested, aliquoted into cryovials and then frozen under liquid nitrogen for long-term storage.
A phospho-ERK1/2 activity assay is used to determine potencies of NRG4 compounds. The potency of Examples 1-8 and 10 as compared to WT human NRG1 and/or human NRG4 are analyzed in studies measuring stimulation of human HER2-HER4 mediated ERK 1/2 phosphorylation. This assay comprises a CHO-K1 stable line expressing human HER2 and HER4. CHO-hHER2-hHER4 (clone 1H6) cells are routinely cultured in DMEM: F12(3:1), 5% FBS, 40 μg/mL L-Proline, 10 μg/mL puromycin and 1 mg/mL hygromycin at 37° C., 5% CO2. Cells are washed twice with 1×PBS, dissociated with 0.05% trypsin/[…] EDTA and collected by centrifugation at 300×g for 10 m. Cells are re-suspended in maintenance media. 20,000 cells/well, in 30 μL, are seeded into 384 well Poly-D-Lysine cell culture plates (Greiner, Cat No. 781946). Plates are covered with a manufacturer's lid and moved to a 37° C. tissue culture incubator at 5% CO^2, 80%+ humidity and allowed to adhere. After 24 h, media are removed from the plates and replaced with 30 μL serum-free starvation media (Low glucose DMEM with 0.1% BSA) using a Biomek FX liquid handler. Plates are returned to the incubator for 24 h.
hFcNRG4 variants, transiently expressed as 293F supernatants, are prepared in starvation media in a clear 384W plate (Greiner, cat no. 781185) as a 4pt 1:8 serial dilution (dose range averaged between 250 pM to 140000 pM). Media are removed from the cell culture plates and the 30 uL/well prepared variants are stamped into the plates using a Biomek FX liquid handler. Plates are sealed with a foil seal and stimulated for 15 minutes at room temperature on an orbital shaker. Cells are then washed once with 50 uL cold PBS. 30 uL lysis buffer is added to the cells and oscillated for 10 m at RT on an orbital shaker.
Detection of phosphorylation of ERR 1/2 is performed with either an AlphaScreen SureFire phospho-ERK1/2 kit (T202/Y204) (Perkin Elmer, catalog no. TGRES) or an AlphaLISA® SureFire® Ultra™ p ERK1/2 assay kit together with the AlphaScreen Protein. A IgG Detection Kit (Protein-A) (PerkinElmer, catalogue no. 6760617). After lysis of the CHO-K1 cells. 4 μL lysate is transferred to a 384W Alpha Proxiplate (Perkin Elmer, cat no, 6008280) with a 384W Biomek FX. 4 uL positive and negative lysates (Perkin Elmer, TGRES-L) are added to available wells as controls. 5 uL/well acceptor mix (containing anti-phoso-Thr202/Tyr204 antibodies and Protein A conjugated acceptor beads) is added to the plate with a Forumlatrix Mantis. The plate is sealed, spun down for 1 min at 300×g and incubated for 2 hr at room temperature on an orbital shaker. 2 μL/well donor mix (containing strepavidin coated donor beads and biotinylated antibodies to a distal ERK1/2 epitope) is dispensed by Mantis. The plate is sealed, spun down for 1 min at 300×g and incubated for 2 hr at room temperature on an orbital shaker before reading on the Perkin Elmer Envision 2103 Multilabel Reader (HIS Alpha mode, excitation time: 40 ms, total measurement time: 130 ms). […]

[3] = Baseline (before captopril 2 g/L in drinking water)
[4] = Week 3 of captopril 2 g/L in drinking water
[5] = Week 4 (2nd randomization; before the single injection of Example 10)
[6] = Week 5 (single injection of Example 10 on week 4; captopril 2 g/L in drinking water)
[7] = Week 6 (single injection of Example 10 on week 4; captopril 2 g/L in drinking water)
[8] = Table 5, Examples average of two replicates ± standard deviation

Molecule: C[C@H](CS)C(=O)N1CCC[C@H]1C(=O)O [Captopril, captopril]
Ejection Fraction [1, 3]: 39.1% | Left Ventricle Diameter (end diastole) [1, 3]: 8.66 | Ejection Fraction [1, 4]: 38.4% | Left Ventricle Diameter (end diastole) [1, 4]: 8.57 | Ejection Fraction [1, 5]: 36.1% | Left Ventricle Diameter (end diastole) [1, 5]: 8.64 | Ejection Fraction [1, 6]: 36.2% | Left Ventricle Diameter (end diastole) [1, 6]: 8.64* | Ejection Fraction [1, 7]: 34.6% | Left Ventricle Diameter (end diastole) [1, 7]: 8.71*

B1: Example 3: NRG4 D1G/V22Q, (GGGGS)3 linker, SEQ ID NO: 12, fused to IgG Fc dimer SEQ ID NO: 6 and 7 (protein)
chain 1: GGGGSGGGGSGGGGSGHEEPCGPSHKSFCLNGGLCYQIPTIPSPFCRCVENYTGARCEEVFL
chain 2: ECPPCPAPPVAGPSVFLFPPKPKDTLMISRTPEVTCVVVDVSHEDPEVQFNWYVDGVEVHNAKTKPREEQFNSTFRVVSVLTVVHQDWLNGKEYKCKVSNKGLPAPIEKTISKTKGQPREPQVYTLPPSREEMTKNQVSLWCLVKGFYPSDIAVEWESNGQPENNYKTTPPVLDSDGSFFLYSKLTVDKSRWQQGNVFSCSVMHEALHNHYTQKSLSLSPG
chain 3: B1 chain 2 with W141S, L143A, Y182V
EC50 [2, 8]: 0.29 ± 0.01 nM

B2: Example 5: NRG4 D1G/E35A, (GGGGS)3 linker, SEQ ID NO: 14, fused to IgG Fc dimer SEQ ID NO: 6 and 7 (protein)
chain 1: B1 chain 1 with Q37V, E50A
chain 2: B1 chain 2
chain 3: B1 chain 2 with W141S, L143A, Y182V
EC50 [2, 8]: 0.84 ± 0.27 nM

B3: Example 4: NRG4 D1G/I26F, (GGGGS)3 linker, SEQ ID NO: 13, fused to IgG Fc dimer SEQ ID NO: 6 and 7 (protein)
chain 1: B1 chain 1 with Q37V, I41F
chain 2: B1 chain 2
chain 3: B1 chain 2 with W141S, L143A, Y182V
EC50 [2, 8]: 0.53 ± 0.05 nM

B5: Example 2: NRG4 D1G/P8E, (GGGGS)3 linker, SEQ ID NO: 11, fused to IgG Fc dimer SEQ ID NO: 6 and 7 (protein)
chain 1: B1 chain 1 with P23E, Q37V
chain 2: B1 chain 2
chain 3: B1 chain 2 with W141S, L143A, Y182V
EC50 [2, 8]: 2.77 ± 0.39 nM

Now from value to molecule:

EC50 ([2]; Table 6): 0.403 nM
B4: Example 8: NRG4 D1G/I26F/P8E, (GGGGS)3 linker, SEQ ID NO: 17, fused to IgG Fc dimer SEQ ID NO: 6 and 7 (protein)
chain 1: B1 chain 1 with P23E, Q37V, I41F
chain 2: B1 chain 2
chain 3: B1 chain 2 with W141S, L143A, Y182V

EC50 ([2]; Table 6): 0.395 nM
B6: Example 6: NRG4 D1G/I26F/E44K, (GGGGS)3 linker, SEQ ID NO: 15, fused to IgG Fc dimer SEQ ID NO: 6 and 7 (protein)
chain 1: B1 chain 1 with Q37V, I41F, E59K
chain 2: B1 chain 2
chain 3: B1 chain 2 with W141S, L143A, Y182V

EC50 ([2]; Table 6): 0.563 nM
B7: Example 7: NRG4 D1G/I26F/E44H, (GGGGS)3 linker, SEQ ID NO: 16, fused to IgG Fc dimer SEQ ID NO: 6 and 7 (protein)
chain 1: B1 chain 1 with Q37V, I41F, E59H
chain 2: B1 chain 2
chain 3: B1 chain 2 with W141S, L143A, Y182V
